Activity calls are given as the source filed them.
Experiments:
[1] = HeLa cell cytotoxicity, dose response, cytotoxicity control for MgcRacGAP inhibitor project (AID 624300); format: functional
[2] = human group III sPLA2 inhibitors, dose response, biochemical, QFRET, IC50 (AID 743457);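 note: green fluorescence rise as the enzyme cleaves BODIPY PC-A2 in liposomes; potency for inhibition of the enzyme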
[3] = Counterscreen for inhibitors of Trypanosoma brucei methionyl tRNA synthetase (MetRS): Luminescence-based cell-based high throughput dose response assay to identify compounds that are cytotoxic to Jurkat human T lymphocyte cells.; format: functional
H9c2 = experiment: cells; format: functional, cell-based; conditions: Rattus norvegicus, H9c2, Myocardium;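 note: confirmatory concentration-response retest of ultra-high-throughput screening hits for modulation of myocardial damage; cell death induced by hydrogen peroxide oxidative stress; compound pretreatment for 60 min then peroxide exposure for 2 h; potency is for protecting the cells against peroxide damage rather than for killing them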
cells = format: functional, cell-based
[4] = biological target: T1, Nuclear receptor subfamily 0 group B member 1 (Homo sapiens, UniProt P51843); format: functional, cell-based;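 note: HEK293T cells transfected with SF-1 and DAX-1 plus StAR promoter luciferase reporter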
T1 sequence (P51843 whole entry): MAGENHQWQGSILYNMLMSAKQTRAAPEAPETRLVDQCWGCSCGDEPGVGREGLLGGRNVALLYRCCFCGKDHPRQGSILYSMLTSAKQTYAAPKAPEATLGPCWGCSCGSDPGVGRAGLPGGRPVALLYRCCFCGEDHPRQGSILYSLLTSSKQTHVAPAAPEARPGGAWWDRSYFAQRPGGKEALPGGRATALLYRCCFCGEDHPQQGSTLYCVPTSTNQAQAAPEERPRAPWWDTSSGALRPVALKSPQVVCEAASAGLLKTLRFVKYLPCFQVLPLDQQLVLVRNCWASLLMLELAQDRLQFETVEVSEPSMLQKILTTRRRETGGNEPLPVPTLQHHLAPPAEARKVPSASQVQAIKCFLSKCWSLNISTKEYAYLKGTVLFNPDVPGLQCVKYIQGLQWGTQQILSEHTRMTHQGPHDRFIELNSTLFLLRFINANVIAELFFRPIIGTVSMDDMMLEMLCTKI

[5] = HEK293T cell cytotoxicity, dose response, cytotoxicity control for HIV Vif inhibitor project, cherry-picks (AID 652208); format: functional, cell-based
Steroidogenic factor 1 = Steroidogenic factor 1 (Homo sapiens, UniProt Q13285); experiment: Counterscreen for inverse agonists of the liver receptor homolog-1 (LRH-1; NR5A2): Luminescence-based cell-based high throughput dose response assay to identify inverse agonists of the Steroidogenic Factor 1 Nuclear Receptor (SF1; NR5A1).; format: functional
[6] = StAR promoter reporter inhibition counter-screen, dose response, counter-screen for LRH-1 inverse agonist project, cell-based, luminescence, luciferase reporter (AID 651969); format: functional
[7] = biological target: Nuclear receptor subfamily 5 group A member 2 (Homo sapiens, UniProt O00482); format: functional, cell-based;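 note: HEK293T cells transfected with LRH-1 and a StAR promoter luciferase reporter; potency for inhibitors that lower LRH-1 driven reporter light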
[8] = biological target: T2, Polyadenylate-binding protein 1 (Homo sapiens, UniProt P11940); experiment: PABP1 MLLE–PAM2 binding inhibitor potency, dose response, biochemical, fluorescence polarization, FITC-PAM2 peptide (AID 602259); format: functional; conditions: read-out: IC50_Mean
[9] = biological target: T2, Polyadenylate-binding protein 1; experiment: PABP1 MLLE–PAM2 interaction inhibitors, dose response, miRNA deadenylation inhibitor project, biochemical, fluorescence polarization, Cy5-PAM2 peptide, secondary (AID 602260); format: functional; conditions: read-out: IC50_Mean
[10] = biological target: T3, Sentrin-specific protease 8 (Homo sapiens, UniProt Q96LD8); format: functional
T3 sequence (Q96LD8 whole entry): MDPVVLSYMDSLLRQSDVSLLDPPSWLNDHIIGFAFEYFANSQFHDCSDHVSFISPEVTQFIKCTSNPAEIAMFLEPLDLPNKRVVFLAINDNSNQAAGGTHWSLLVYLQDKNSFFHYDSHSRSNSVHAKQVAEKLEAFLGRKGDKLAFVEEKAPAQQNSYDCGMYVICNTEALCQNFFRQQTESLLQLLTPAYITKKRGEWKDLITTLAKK

[11] = biological target: T3, Sentrin-specific protease 8; format: functional; remark: listed apart in the source
Genome polyprotein = Genome polyprotein (dengue virus type 2, UniProt P29990); experiment: Dengue-2 NS5 methyltransferase inhibitors, primary screen, biochemical, confirmation dose response (AID 588689); format: functional
[12] = biological target: Glycogen synthase kinase-3 beta (Homo sapiens, UniProt P49841); format: functional;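 note: value comes from a broad kinome profiling panel, with GSK3B as the panel member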
[13] = biological target: Mitogen-activated protein kinase kinase kinase kinase 4 (Homo sapiens, UniProt O95819); format: functional
[14] = biological target: T4, Interleukin-1 receptor-associated kinase 4 (Homo sapiens, UniProt Q9NWZ3); format: functional
T4 sequence (Q9NWZ3 whole entry): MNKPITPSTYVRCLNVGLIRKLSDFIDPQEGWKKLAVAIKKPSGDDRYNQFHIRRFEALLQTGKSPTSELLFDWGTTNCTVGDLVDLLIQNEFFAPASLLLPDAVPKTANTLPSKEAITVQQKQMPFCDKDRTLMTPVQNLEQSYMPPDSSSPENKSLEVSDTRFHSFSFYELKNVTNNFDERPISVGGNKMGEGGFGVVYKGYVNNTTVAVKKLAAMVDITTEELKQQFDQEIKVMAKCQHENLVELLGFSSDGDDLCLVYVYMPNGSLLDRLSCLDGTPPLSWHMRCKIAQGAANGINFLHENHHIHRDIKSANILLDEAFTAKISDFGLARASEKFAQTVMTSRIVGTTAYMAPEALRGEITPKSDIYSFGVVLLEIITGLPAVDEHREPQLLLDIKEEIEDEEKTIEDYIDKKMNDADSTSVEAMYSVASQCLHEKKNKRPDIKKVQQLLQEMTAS

[15] = biological target: MAP kinase-interacting serine/threonine-protein kinase 2 (Homo sapiens, UniProt Q9HBH9); format: functional
[16] = biological target: Cell division cycle 7-related protein kinase (Homo sapiens, UniProt O00311); format: functional;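 note: value obtained from a kinome-wide kinase panel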
[17] = biological target: Homeodomain-interacting protein kinase 2 (Homo sapiens, UniProt Q9H2X6); format: functional;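 note: measured within a kinome-wide kinase profiling panel, HIPK2 being one panel member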
[18] = biological target: Serine/threonine-protein kinase pim-1 (Homo sapiens, UniProt P11309); format: functional
[19] = biological target: Dual specificity protein kinase CLK4 (Homo sapiens, UniProt Q9HAZ1); format: functional
[20] = biological target: cAMP-dependent protein kinase catalytic subunit alpha (Homo sapiens, UniProt P17612); format: functional
INS1 = experiment: beta cell apoptosis inhibitors, cytokine rescue, dose response, luminescence, retest (AID 449756); format: functional, cell-based; conditions: Rattus norvegicus;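 note: cell death triggered by IL-1 beta plus TNF-alpha plus IFN-gamma mixture; protective hits raise ATP signal compared with cytokine alone wells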
[21] = biological target: 72 kDa type IV collagenase (Homo sapiens, UniProt P08253); experiment: Dose Response validation of uHTS RPN11 inhibitor hits using a MMP-2 Fluorescence assay.; format: functional
Prothrombin = Prothrombin (Bos taurus, UniProt P00735); experiment: thrombin inhibition, dose response, biochemical, fluorescence polarization, uHTS hits (AID 602369); format: functional
[22] = biological target: Arf-GAP with SH3 domain, ANK repeat and PH domain-containing protein 1 (Homo sapiens, UniProt Q9ULH1); format: functional;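 note: biochemical fluorescence polarization dose–response screen measuring inhibition of ASAP1; ASAP1 GAP domain stimulating GTP hydrolysis by truncated human ARF1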
[23] = Luminescence Cell-Based Dose Retest to Confirm Inhibitors of Cancer Stem Cells. [Related pubchem assays (depositor defined):AID2717, AID2721]; format: functional; conditions: Homo sapiens
[24] = biological target: 26S proteasome non-ATPase regulatory subunit 14 (Homo sapiens, UniProt O00487); experiment: inhibition of proteasome subunit RPN11 – biochemical, fluorescence polarization, uHTS hits, confirmation (AID 602368); format: functional
[25] = biological target: Adenosylmethionine-8-amino-7-oxononanoate aminotransferase (Mycobacterium tuberculosis, UniProt P9WQ81); experiment: Mycobacterium tuberculosis BioA enzyme inhibitor Measured in Biochemical System Using Plate Reader - 2163-02_Inhibitor_Dose_CherryPick_Activity.; format: functional, Mycobacterium tuberculosis UT205
[26] = biological target: T5, Apoptotic protease-activating factor 1 (Homo sapiens, UniProt O14727); experiment: SAR analysis of small molecule Activators of Apaf-1 in a Fluorescent assay.; format: functional; conditions: read-out: EC50_Mean;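 note: caspase-3 cleavage of fluorogenic Rh110 DEVD substrate downstream of apoptosome activation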
T5 sequence (O14727 whole entry): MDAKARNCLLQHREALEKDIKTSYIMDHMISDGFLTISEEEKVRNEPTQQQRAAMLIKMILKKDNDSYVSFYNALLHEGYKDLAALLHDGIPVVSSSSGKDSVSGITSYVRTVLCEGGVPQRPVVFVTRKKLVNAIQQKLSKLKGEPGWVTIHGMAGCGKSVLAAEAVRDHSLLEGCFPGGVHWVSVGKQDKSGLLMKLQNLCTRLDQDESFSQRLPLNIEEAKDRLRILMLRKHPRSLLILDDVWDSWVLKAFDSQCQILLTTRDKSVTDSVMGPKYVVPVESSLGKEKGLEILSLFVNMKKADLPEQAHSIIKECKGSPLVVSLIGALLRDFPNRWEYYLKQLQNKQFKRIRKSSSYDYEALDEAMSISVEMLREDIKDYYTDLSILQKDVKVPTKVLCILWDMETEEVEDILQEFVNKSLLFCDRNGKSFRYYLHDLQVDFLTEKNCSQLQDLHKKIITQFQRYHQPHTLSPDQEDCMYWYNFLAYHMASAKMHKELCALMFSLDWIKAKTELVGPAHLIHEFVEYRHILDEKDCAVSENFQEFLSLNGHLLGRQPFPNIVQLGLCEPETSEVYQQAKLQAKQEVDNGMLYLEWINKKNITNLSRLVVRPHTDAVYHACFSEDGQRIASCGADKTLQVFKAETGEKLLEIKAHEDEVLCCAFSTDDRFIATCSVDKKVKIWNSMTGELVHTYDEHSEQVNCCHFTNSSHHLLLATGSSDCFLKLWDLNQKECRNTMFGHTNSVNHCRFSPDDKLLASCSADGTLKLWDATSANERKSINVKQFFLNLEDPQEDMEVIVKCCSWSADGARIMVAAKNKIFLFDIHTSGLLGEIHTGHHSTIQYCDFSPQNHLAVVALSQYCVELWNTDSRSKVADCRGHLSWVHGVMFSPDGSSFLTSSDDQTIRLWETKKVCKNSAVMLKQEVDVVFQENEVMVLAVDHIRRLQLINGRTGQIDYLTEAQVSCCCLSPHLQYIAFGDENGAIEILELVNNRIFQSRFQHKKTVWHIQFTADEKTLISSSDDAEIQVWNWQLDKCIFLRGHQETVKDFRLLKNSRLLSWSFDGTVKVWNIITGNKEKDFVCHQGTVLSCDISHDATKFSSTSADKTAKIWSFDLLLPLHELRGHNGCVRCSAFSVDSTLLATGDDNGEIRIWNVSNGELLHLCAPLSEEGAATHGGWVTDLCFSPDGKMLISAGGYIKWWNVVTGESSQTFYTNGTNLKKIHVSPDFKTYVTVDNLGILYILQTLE

Interleukin-8 = Interleukin-8 (Homo sapiens, UniProt P10145); experiment: Dose Response confirmation of uHTS small molecule hits for cystic fibrosis induced NFkb Inhibitors in a PAF-induced IL8 counterscreen.; format: functional; conditions: read-out: IC50_Mean
[27] = cytotoxicity toward NIH3T3 fibroblasts, dose response, counter-screen, cell-based, ATP luminescence, mouse fibroblasts (AID 2010); format: functional;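 note: cells exposed to compound for about 90 hours before reading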
[28] = inhibitors of intracellular T. cruzi replication, confirmation, NIH3T3 host cells, beta-gal luminescence (AID 2044); format: functional, cell-based;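 note: intracellular parasites grown in NIH/3T3 mouse fibroblasts as host cells; luminescent beta-galactosidase reporter signal from transgenic T. cruzi replicating inside host cells; inhibitors lower the luminescence signal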
[29] = growth suppression of PTEN-null colon cells, dose response, cell-based, HCT116 PTEN knockout (AID 1047); format: functional;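 note: HCT116 colon tumor cells with PTEN knocked out; cells exposed to compound for 60 hours before readout; potency for loss of cell viability measured by luminescence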
[30] = growth suppression of beta-catenin-knockout colon cells, dose response, cell-based, HCT116, human colon tumor (AID 1045); format: functional;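 note: HCT116 colon tumor cells with beta catenin knocked out; cells exposed to compound for 60 hours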

Adenosylmethionine-8-amino-7-oxononanoate aminotransferase, sequence (P9WQ81 whole entry): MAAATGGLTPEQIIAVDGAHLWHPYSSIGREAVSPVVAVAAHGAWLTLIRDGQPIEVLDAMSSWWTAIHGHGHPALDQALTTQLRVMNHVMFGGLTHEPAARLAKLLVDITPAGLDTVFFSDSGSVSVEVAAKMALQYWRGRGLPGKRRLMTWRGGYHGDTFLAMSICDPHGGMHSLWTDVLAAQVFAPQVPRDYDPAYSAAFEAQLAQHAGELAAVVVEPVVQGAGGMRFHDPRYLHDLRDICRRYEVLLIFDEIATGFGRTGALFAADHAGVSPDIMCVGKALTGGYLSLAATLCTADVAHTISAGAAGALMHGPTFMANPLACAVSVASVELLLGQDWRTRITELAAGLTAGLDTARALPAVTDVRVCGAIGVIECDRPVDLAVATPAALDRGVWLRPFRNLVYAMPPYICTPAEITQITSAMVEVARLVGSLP
T2 sequence (P11940 whole entry): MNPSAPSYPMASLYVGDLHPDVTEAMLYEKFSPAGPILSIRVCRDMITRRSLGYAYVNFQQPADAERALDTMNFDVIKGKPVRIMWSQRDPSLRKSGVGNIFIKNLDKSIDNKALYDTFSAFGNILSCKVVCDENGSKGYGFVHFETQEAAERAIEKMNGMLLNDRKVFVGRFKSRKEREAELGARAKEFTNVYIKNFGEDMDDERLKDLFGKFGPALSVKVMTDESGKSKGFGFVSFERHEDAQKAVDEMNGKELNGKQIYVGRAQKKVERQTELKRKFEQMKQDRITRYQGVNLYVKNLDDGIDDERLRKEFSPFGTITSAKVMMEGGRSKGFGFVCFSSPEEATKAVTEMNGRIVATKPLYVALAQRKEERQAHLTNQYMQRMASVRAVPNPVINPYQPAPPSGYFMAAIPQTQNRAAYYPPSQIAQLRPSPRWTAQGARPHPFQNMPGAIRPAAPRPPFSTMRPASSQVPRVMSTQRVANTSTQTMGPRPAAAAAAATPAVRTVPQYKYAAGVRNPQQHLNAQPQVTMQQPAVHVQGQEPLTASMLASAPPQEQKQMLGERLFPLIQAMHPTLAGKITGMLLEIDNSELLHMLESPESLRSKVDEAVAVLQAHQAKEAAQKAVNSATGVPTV
Steroidogenic factor 1, sequence (Q13285 whole entry): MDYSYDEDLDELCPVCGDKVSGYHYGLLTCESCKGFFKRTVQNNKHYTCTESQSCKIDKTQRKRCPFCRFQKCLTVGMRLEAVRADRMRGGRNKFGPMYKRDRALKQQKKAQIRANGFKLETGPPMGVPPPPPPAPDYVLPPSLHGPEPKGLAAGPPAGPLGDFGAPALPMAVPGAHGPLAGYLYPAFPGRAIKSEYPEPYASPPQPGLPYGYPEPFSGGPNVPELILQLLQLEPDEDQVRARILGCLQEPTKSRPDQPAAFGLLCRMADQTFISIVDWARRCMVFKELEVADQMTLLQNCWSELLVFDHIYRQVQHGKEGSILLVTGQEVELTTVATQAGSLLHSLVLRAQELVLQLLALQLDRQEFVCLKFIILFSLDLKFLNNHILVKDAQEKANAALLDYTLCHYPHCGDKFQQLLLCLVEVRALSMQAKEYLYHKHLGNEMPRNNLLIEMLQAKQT
Arf-GAP with SH3 domain, ANK repeat and PH domain-containing protein 1, sequence (Q9ULH1 whole entry, the tested form may be a part): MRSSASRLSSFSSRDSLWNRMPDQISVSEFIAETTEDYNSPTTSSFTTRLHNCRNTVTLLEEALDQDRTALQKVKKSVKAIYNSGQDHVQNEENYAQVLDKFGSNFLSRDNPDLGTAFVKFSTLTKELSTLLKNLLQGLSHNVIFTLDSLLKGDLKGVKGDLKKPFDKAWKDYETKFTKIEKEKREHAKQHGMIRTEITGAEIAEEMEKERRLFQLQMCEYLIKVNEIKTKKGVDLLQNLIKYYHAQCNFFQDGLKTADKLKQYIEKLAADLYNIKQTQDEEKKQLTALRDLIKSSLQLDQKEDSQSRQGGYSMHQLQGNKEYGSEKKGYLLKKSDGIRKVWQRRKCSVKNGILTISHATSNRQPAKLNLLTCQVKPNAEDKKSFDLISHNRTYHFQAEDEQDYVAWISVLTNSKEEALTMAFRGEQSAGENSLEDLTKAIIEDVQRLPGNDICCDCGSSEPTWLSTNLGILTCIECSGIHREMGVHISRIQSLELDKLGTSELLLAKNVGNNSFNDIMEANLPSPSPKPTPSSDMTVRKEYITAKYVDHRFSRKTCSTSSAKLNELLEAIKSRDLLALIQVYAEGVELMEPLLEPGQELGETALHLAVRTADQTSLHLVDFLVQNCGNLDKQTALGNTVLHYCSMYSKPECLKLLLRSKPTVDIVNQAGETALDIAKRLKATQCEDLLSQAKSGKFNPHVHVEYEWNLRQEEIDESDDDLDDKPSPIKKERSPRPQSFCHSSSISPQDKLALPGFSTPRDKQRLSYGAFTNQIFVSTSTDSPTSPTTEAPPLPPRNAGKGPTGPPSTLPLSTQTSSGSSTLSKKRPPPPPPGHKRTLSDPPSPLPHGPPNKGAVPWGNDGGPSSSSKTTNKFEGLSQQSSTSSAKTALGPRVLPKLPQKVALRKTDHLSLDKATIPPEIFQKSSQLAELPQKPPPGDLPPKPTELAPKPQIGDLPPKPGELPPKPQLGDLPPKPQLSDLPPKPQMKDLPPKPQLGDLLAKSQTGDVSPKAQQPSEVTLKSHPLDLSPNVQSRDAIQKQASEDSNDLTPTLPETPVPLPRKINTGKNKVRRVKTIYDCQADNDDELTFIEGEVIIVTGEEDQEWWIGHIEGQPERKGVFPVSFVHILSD
Nuclear receptor subfamily 5 group A member 2, sequence (O00482 whole entry): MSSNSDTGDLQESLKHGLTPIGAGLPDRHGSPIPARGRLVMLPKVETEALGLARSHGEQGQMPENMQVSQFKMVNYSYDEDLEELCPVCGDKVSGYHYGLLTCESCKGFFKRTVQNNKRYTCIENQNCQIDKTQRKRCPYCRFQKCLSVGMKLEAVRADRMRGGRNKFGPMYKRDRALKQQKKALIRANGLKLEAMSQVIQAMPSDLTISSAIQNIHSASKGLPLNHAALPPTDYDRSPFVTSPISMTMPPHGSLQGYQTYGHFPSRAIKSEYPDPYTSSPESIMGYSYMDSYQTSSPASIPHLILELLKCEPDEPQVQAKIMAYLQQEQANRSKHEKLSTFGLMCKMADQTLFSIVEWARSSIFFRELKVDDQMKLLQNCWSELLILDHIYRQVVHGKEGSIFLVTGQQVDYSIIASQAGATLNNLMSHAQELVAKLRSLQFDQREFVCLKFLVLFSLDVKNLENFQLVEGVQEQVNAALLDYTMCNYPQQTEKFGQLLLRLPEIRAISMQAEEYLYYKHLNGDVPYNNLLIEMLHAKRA
26S proteasome non-ATPase regulatory subunit 14, sequence (O00487 whole entry): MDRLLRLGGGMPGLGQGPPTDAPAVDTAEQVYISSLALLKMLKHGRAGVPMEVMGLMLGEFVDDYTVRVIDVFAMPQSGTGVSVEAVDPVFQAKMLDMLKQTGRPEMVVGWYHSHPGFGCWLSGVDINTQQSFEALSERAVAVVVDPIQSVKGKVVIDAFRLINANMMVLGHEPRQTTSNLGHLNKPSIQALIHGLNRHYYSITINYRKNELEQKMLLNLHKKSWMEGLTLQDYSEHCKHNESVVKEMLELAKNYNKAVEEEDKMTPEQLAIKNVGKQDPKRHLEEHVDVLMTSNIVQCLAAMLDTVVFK
Cell division cycle 7-related protein kinase, sequence (O00311 whole entry): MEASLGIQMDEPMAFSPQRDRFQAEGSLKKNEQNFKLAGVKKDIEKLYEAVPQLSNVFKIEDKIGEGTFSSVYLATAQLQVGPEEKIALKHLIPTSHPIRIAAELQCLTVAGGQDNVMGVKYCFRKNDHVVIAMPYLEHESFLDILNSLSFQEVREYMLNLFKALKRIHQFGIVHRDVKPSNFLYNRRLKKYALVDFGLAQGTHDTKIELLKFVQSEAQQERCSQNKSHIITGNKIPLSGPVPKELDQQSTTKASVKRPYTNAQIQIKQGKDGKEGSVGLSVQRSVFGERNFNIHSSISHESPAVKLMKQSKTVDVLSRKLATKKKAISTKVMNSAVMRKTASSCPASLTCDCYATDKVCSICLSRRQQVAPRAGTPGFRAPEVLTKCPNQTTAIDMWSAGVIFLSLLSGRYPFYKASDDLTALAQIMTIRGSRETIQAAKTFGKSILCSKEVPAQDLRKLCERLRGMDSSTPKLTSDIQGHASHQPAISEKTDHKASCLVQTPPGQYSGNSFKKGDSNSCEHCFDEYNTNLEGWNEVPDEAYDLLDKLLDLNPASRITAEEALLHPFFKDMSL
Dual specificity protein kinase CLK4, sequence (Q9HAZ1 whole entry): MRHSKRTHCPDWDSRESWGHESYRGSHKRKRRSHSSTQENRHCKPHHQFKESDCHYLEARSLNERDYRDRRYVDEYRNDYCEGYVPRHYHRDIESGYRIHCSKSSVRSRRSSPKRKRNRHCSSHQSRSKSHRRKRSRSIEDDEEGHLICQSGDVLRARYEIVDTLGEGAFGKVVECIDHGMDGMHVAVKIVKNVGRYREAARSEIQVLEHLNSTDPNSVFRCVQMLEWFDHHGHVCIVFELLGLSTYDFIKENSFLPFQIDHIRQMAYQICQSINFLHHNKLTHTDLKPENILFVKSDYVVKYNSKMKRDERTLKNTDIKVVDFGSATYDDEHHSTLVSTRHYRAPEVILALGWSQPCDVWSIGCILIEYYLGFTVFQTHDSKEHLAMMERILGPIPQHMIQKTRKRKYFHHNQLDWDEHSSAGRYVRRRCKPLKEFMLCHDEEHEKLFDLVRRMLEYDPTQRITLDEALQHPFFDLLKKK
Glycogen synthase kinase-3 beta, sequence (P49841 whole entry): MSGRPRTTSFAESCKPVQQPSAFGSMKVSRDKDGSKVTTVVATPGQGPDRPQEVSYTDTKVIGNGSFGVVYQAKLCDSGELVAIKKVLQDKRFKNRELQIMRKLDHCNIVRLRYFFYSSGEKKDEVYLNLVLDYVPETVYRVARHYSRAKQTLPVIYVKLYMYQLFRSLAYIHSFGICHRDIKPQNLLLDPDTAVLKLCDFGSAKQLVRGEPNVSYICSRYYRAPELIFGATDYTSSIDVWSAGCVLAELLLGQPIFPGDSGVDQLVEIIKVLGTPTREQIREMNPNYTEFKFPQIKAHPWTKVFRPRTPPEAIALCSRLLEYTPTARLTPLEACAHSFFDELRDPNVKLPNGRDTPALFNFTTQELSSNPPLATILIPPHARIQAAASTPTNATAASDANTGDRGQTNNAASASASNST

With `COc1ccccc1NC(=O)NNC(=O)c1ccc2ccccc2c1O` the CC50 [1] was 100 µM (active) and the IC50 [2] was > 122 µM (inactive).

In the case of `Cc1cc(Cl)ccc1OCCCC(=O)NNC(=O)c1ccccc1O`, the IC50 [3] is reported as 83.3 µM (inactive) and the IC50 (H9c2) is reported as > 79 µM (inactive).

With `CCCCN1C(C)=CC(=C2C(=O)c3ccccc3C2=O)C=C1C` the IC50 (cells) was > 67.5 µM (inactive) and the IC50 [4] was > 67.5 µM (inactive).

For `CCOc1cccc(C(=O)Nc2ccc3oc(Cc4ccc(Cl)cc4)nc3c2)c1`, the AC50 [5] was > 52 µM (inactive).

In the case of `Cc1ccc(NC(=O)CSc2nnc([C@@H]3CCCN3C(=O)OC(C)(C)C)o2)c(C)c1`, the IC50 (Steroidogenic factor 1) is reported as 0.932 µM (active), the IC50 [6] is reported as 35.9 µM (inactive) and the IC50 [7] is reported as 1.33 µM (active).

With `CC(C)n1nc(C(=O)Nc2ccc(-n3cnnn3)cc2)c2ccccc2c1=O` the AC50 [5] was > 52 µM (inactive).

For `COc1ccc(NC(=O)CSc2ccc3c(c2)OCCO3)cc1`, the IC50 (Steroidogenic factor 1) was 5.7 µM (active), the IC50 [6] was 35.9 µM (inactive) and the IC50 [7] was 35.9 µM (inactive).

With `Oc1ccc(CN2CCCCC2)nc1O` the IC50 [8] was 57.9 µM (inactive), the IC50 [9] was > 66 µM (inactive) and the IC50 [10] was 15.5 µM (active). The IC50 [11] was 3.73 µM (active) and the IC50 (Genome polyprotein) was 64.9 µM (active).

With `c1ccc(Cn2nnc(-c3ccc4[nH]ncc4c3)c2-c2ccccc2)cc1` the Ki [12] was 0.01 µM (active), the Ki [13] was 0.794 µM (active) and the Ki [14] was > 10 µM (inactive). For the same compound, the Ki [15] was 0.0398 µM (active), the Ki [16] was 0.000631 µM (active) and the Ki [17] was 1 µM (active). For the same compound, the Ki [18] was 3.16 µM (active), the Ki [19] was 0.00501 µM (active) and the Ki [20] was 0.0316 µM (active).

In the case of `O=C(N/N=C/c1cc(Cl)ccc1O)c1ccc(Br)cc1`, the AC50 (INS1) is reported as 0.773 µM (active), the IC50 [21] is reported as 10.3 µM (active) and the IC50 (Prothrombin) is reported as 63.2 µM (active). For the same compound, the IC50 [22] was 21.3 µM (inactive), the AC50 [23] was 1.09 µM (active) and the IC50 [24] was 12.7 µM (active).

With `C=CCOc1ccc(/C=N/Nc2ccccn2)cc1OC` the IC50 (cells) was > 67.5 µM (inactive) and the IC50 [4] was > 67.5 µM (inactive).

In the case of `O=C(Nc1nccs1)[C@H]1[C@H](CO)[C@H]2Cn3c(ccc(-c4cccnc4)c3=O)[C@H]2N1CC1CCCC1`, the AC50 [25] is reported as 8.95 µM (active).

For `O=C(C[C@@H]1C[C@@H]2c3cc(NC(=O)c4cccnc4)ccc3O[C@@H]2[C@@H](CO)O1)NCCc1ccccc1`, the AC50 [25] was 6.92 µM (active).

In the case of `COC(=O)[C@@H]1COC(c2cc([N+](=O)[O-])ccc2[N+](=O)[O-])=N1`, the EC50 [26] is reported as > 100 µM (inactive).

For `CC(=O)Oc1ccccc1C(=O)Oc1ccc(/C=N/n2cnnc2)cc1`, the IC50 (Interleukin-8) was 4.67 µM (active).

In the case of `N#Cc1cc([N+](=O)[O-])ccc1Oc1cccc(/C=N/NC(=O)c2ccc(Cl)cc2)c1`, the EC50 [27] is reported as > 60 µM (not active), the EC50 [28] is reported as 0.616 µM (active) and the IC50 [22] is reported as 32.8 µM (inactive). The EC50 [29] was 48.5 µM (active) and the EC50 [30] was 51.9 µM (active).
